Measurements as given in patent US8952024B2, “Herbicidal pyrimidone derivatives” (E I du Pont de Nemours and Company, priority 2009, dated 2015).

How the values were obtained:
Test in all cases: Test B pre-/postemergence plant response
Format in all cases: in vivo
[1] = system: Italian ryegrass (Lolium multiflorum); conditions: Postemergence
Method in brief: (§1)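 Seeds were sown in loam soil/sand blend and treated preemergence with compound in non-phytotoxic solvent mixture containing surfactant; postemergence sprays, same formulation, went onto plants 2 to 18 cm (1- to 4-leaf stage) in peat-based planting medium. Greenhouse 13 to 15 days, then visual rating versus untreated controls, 0 (no effect) to 100 (complete control).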

[2] = system: Surinam grass (Brachiaria decumbens); conditions: Postemergence
Method in brief: as §1

[3] = system: bermudagrass (Cynodon dactylon); conditions: for Bermudagrass plant response rating (0 to 100 scale): 62 g ai/ha, postemergence, 0 is no effect, 100 is complete control; for Plant response rating, Bermudagrass: Postemergence
Method in brief: as §1

[4] = system: blackgrass (Alopecurus myosuroides); conditions: for Blackgrass plant response rating (0 to 100 scale): 62 g ai/ha, postemergence, 0 is no effect, 100 is complete control; for Plant response rating, Blackgrass: Postemergence
Method in brief: as §1

corn (Zea mays) = conditions: Postemergence
Method in brief: as §1

[5] = system: downy bromegrass (Bromus tectorum); conditions: for Bromegrass, Downy plant response rating (0 to 100 scale): 62 g ai/ha, postemergence, 0 is no effect, 100 is complete control; for Plant response rating, Bromegrass, Downy: Postemergence
Method in brief: as §1

[6] = system: giant foxtail (Setaria faberii); conditions: Postemergence
Method in brief: as §1

[7] = system: green foxtail (Setaria viridis); conditions: Postemergence
Method in brief: as §1

[8] = system: lambsquarters (Chenopodium album); conditions: Postemergence
Method in brief: as §1

[9] = system: large crabgrass (Digitaria sanguinalis); conditions: Postemergence
Method in brief: as §1

[10] = system: morningglory (Ipomoea coccinea); conditions: Postemergence
Method in brief: as §1

[11] = system: woolly cupgrass (Eriochloa villosa); conditions: Postemergence
Method in brief: as §1

[12] = system: yellow nutsedge (Cyperus esculentus); conditions: Postemergence
Method in brief: as §1

[13] = 31 g ai/ha, 0 to 100 scale (0 no effect, 100 complete control)
[14] = 125 g ai/ha, scale 0 to 100 (0 no effect, 100 complete control)
[15] = 250 g ai/ha, scale 0 to 100 (0 no effect, 100 complete control), 13 to 15 days

## Cc1ccc(F)cc1-n1c(-c2cccc(Cl)c2)ncc(C(=O)C2=C(O)CCCC2=O)c1=O [Compound 157]
[1]; [13]
  Plant response rating, Ryegrass, Italian: 10
[1]; [14]
  Plant response rating, Ryegrass, Italian: 30
[1]; [15]
  Plant response rating, Ryegrass, Italian: 35
[2]; [13]
  Plant response rating, Surinam Grass: 75
[2]; [14]
  Plant response rating, Surinam Grass: 98
[2]; [15]
  Plant response rating, Surinam Grass: 100
[3]; 13 to 15 days
  Bermudagrass plant response rating (0 to 100 scale): 90
[3]; [13]
  Plant response rating, Bermudagrass: 75
[3]; [14]
  Plant response rating, Bermudagrass: 100
[3]; [15]
  Plant response rating, Bermudagrass: 100
[4]; 13 to 15 days
  Blackgrass plant response rating (0 to 100 scale): 5
[4]; [13]
  Plant response rating, Blackgrass: 0
[4]; [14]
  Plant response rating, Blackgrass: 10
[4]; [15]
  Plant response rating, Blackgrass: 40
Corn (Zea mays); [13]
  Plant response rating, Corn: 70
Corn (Zea mays); [14]
  Plant response rating, Corn: 95
Corn (Zea mays); [15]
  Plant response rating, Corn: 100
[5]; 13 to 15 days
  Bromegrass, Downy plant response rating (0 to 100 scale): 40
[5]; [13]
  Plant response rating, Bromegrass, Downy: 40
[5]; [14]
  Plant response rating, Bromegrass, Downy: 60
[5]; [15]
  Plant response rating, Bromegrass, Downy: 65
[6]; [13]
  Plant response rating, Foxtail, Giant: 98
[6]; [14]
  Plant response rating, Foxtail, Giant: 100
[6]; [15]
  Plant response rating, Foxtail, Giant: 100
[7]; [13]
  Plant response rating, Foxtail, Green: 70
[7]; [14]
  Plant response rating, Foxtail, Green: 85
[7]; [15]
  Plant response rating, Foxtail, Green: 95
[8]; [13]
  Plant response rating, Lambsquarters: 98
[8]; [14]
  Plant response rating, Lambsquarters: 100
[8]; [15]
  Plant response rating, Lambsquarters: 100
[9]; [13]
  Plant response rating, Crabgrass, Large: 80
[9]; [14]
  Plant response rating, Crabgrass, Large: 98
[9]; [15]
  Plant response rating, Crabgrass, Large: 100
[10]; [13]
  Plant response rating, Morningglory: 20
[10]; [14]
  Plant response rating, Morningglory: 95
[10]; [15]
  Plant response rating, Morningglory: 100
[11]; [13]
  Plant response rating, Cupgrass, Woolly: 85
[11]; [14]
  Plant response rating, Cupgrass, Woolly: 98
[11]; [15]
  Plant response rating, Cupgrass, Woolly: 98
[12]; [13]
  Plant response rating, Nutsedge, Yellow: 30
[12]; [14]
  Plant response rating, Nutsedge, Yellow: 40
[12]; [15]
  Plant response rating, Nutsedge, Yellow: 45

## Cc1ccccc1-n1c(-c2cc(F)cc(F)c2)ncc(C(=O)C2=C(O)CCCC2=O)c1=O [Compound 159]
[1]; 8 g ai/ha, 0 to 100 scale
  Plant response rating, Ryegrass, Italian: 0
[1]; 16 g ai/ha, 0 to 100 scale
  Plant response rating, Ryegrass, Italian: 0
[1]; [13]
  Plant response rating, Ryegrass, Italian: 30
[2]; 8 g ai/ha, 0 to 100 scale
  Plant response rating, Surinam Grass: 65
[2]; 16 g ai/ha, 0 to 100 scale
  Plant response rating, Surinam Grass: 65
[2]; [13]
  Plant response rating, Surinam Grass: 75
[3]; 8 g ai/ha, 0 to 100 scale
  Plant response rating, Bermudagrass: 70
[3]; 16 g ai/ha, 0 to 100 scale
  Plant response rating, Bermudagrass: 80
[3]; 13 to 15 days
  Bermudagrass plant response rating (0 to 100 scale): 100
[3]; [13]
  Plant response rating, Bermudagrass: 95
[4]; 8 g ai/ha, 0 to 100 scale
  Plant response rating, Blackgrass: 0
[4]; 16 g ai/ha, 0 to 100 scale
  Plant response rating, Blackgrass: 5
[4]; 13 to 15 days
  Blackgrass plant response rating (0 to 100 scale): 25
[4]; [13]
  Plant response rating, Blackgrass: 20
Corn (Zea mays); 8 g ai/ha, 0 to 100 scale
  Plant response rating, Corn: 15
Corn (Zea mays); 16 g ai/ha, 0 to 100 scale
  Plant response rating, Corn: 25
Corn (Zea mays); [13]
  Plant response rating, Corn: 60
[5]; 8 g ai/ha, 0 to 100 scale
  Plant response rating, Bromegrass, Downy: 15
[5]; 16 g ai/ha, 0 to 100 scale
  Plant response rating, Bromegrass, Downy: 15
[5]; 13 to 15 days
  Bromegrass, Downy plant response rating (0 to 100 scale): 50
[5]; [13]
  Plant response rating, Bromegrass, Downy: 50
[6]; 8 g ai/ha, 0 to 100 scale
  Plant response rating, Foxtail, Giant: 75
[6]; 16 g ai/ha, 0 to 100 scale
  Plant response rating, Foxtail, Giant: 80
[6]; [13]
  Plant response rating, Foxtail, Giant: 85
[7]; 8 g ai/ha, 0 to 100 scale
  Plant response rating, Foxtail, Green: 50
[7]; 16 g ai/ha, 0 to 100 scale
  Plant response rating, Foxtail, Green: 80
[7]; [13]
  Plant response rating, Foxtail, Green: 85
[8]; 8 g ai/ha, 0 to 100 scale
  Plant response rating, Lambsquarters: 90
[8]; 16 g ai/ha, 0 to 100 scale
  Plant response rating, Lambsquarters: 95
[8]; [13]
  Plant response rating, Lambsquarters: 100
[9]; 8 g ai/ha, 0 to 100 scale
  Plant response rating, Crabgrass, Large: 65
[9]; 16 g ai/ha, 0 to 100 scale
  Plant response rating, Crabgrass, Large: 75
[9]; [13]
  Plant response rating, Crabgrass, Large: 80
[10]; 8 g ai/ha, 0 to 100 scale
  Plant response rating, Morningglory: 0
[10]; 16 g ai/ha, 0 to 100 scale
  Plant response rating, Morningglory: 10
[10]; [13]
  Plant response rating, Morningglory: 60
[11]; 8 g ai/ha, 0 to 100 scale
  Plant response rating, Cupgrass, Woolly: 60
[11]; 16 g ai/ha, 0 to 100 scale
  Plant response rating, Cupgrass, Woolly: 65
[11]; [13]
  Plant response rating, Cupgrass, Woolly: 70
[12]; 8 g ai/ha, 0 to 100 scale
  Plant response rating, Nutsedge, Yellow: 10
[12]; 16 g ai/ha, 0 to 100 scale
  Plant response rating, Nutsedge, Yellow: 20
[12]; [13]
  Plant response rating, Nutsedge, Yellow: 40

## O=C1CCCC(O)=C1C(=O)c1cnc(-c2ccccc2)n(C2CCSCC2)c1=O [Compound 164]
[1]; [13]
  Plant response rating, Ryegrass, Italian: 5
[1]; [14]
  Plant response rating, Ryegrass, Italian: 20
[1]; [15]
  Plant response rating, Ryegrass, Italian: 40
[2]; [13]
  Plant response rating, Surinam Grass: 60
[2]; [14]
  Plant response rating, Surinam Grass: 95
[2]; [15]
  Plant response rating, Surinam Grass: 98
[3]; 13 to 15 days
  Bermudagrass plant response rating (0 to 100 scale): 98
[3]; [13]
  Plant response rating, Bermudagrass: 70
[3]; [14]
  Plant response rating, Bermudagrass: 98
[3]; [15]
  Plant response rating, Bermudagrass: 100
[4]; 13 to 15 days
  Blackgrass plant response rating (0 to 100 scale): 5
[4]; [13]
  Plant response rating, Blackgrass: 5
[4]; [14]
  Plant response rating, Blackgrass: 10
[4]; [15]
  Plant response rating, Blackgrass: 35
Corn (Zea mays); [13]
  Plant response rating, Corn: 15
Corn (Zea mays); [14]
  Plant response rating, Corn: 45
Corn (Zea mays); [15]
  Plant response rating, Corn: 70
[5]; 13 to 15 days
  Bromegrass, Downy plant response rating (0 to 100 scale): 80
[5]; [13]
  Plant response rating, Bromegrass, Downy: 40
[5]; [14]
  Plant response rating, Bromegrass, Downy: 85
[5]; [15]
  Plant response rating, Bromegrass, Downy: 95
[6]; [13]
  Plant response rating, Foxtail, Giant: 90
[6]; [14]
  Plant response rating, Foxtail, Giant: 98
[6]; [15]
  Plant response rating, Foxtail, Giant: 100
[7]; [13]
  Plant response rating, Foxtail, Green: 70
[7]; [14]
  Plant response rating, Foxtail, Green: 98
[7]; [15]
  Plant response rating, Foxtail, Green: 100
[8]; [13]
  Plant response rating, Lambsquarters: 98
[8]; [14]
  Plant response rating, Lambsquarters: 100
[8]; [15]
  Plant response rating, Lambsquarters: 100
[9]; [13]
  Plant response rating, Crabgrass, Large: 95
[9]; [14]
  Plant response rating, Crabgrass, Large: 98
[9]; [15]
  Plant response rating, Crabgrass, Large: 100
[10]; [13]
  Plant response rating, Morningglory: 90
[10]; [14]
  Plant response rating, Morningglory: 98
[10]; [15]
  Plant response rating, Morningglory: 100
[11]; [13]
  Plant response rating, Cupgrass, Woolly: 75
[11]; [14]
  Plant response rating, Cupgrass, Woolly: 98
[11]; [15]
  Plant response rating, Cupgrass, Woolly: 100
[12]; [13]
  Plant response rating, Nutsedge, Yellow: 40
[12]; [14]
  Plant response rating, Nutsedge, Yellow: 70
[12]; [15]
  Plant response rating, Nutsedge, Yellow: 75
